From patent US9629869B2, “Application of fructus schisandrae total polysaccharides in preparatoin of medicine or nutraceuticals used for treating coughing” (priority 2014, dated 2017)

Tests used:
Assay type in all cases: in vivo, guinea pig
[1] = system: citric acid smoke stimulation-caused guinea pigs; test: Coughing times of citric acid smoke stimulated guinea pigs at different time points after one dose (Embodiment III); settings: 5 hours after one oral dose of 30 mg/kg; FIG. 2
Description: After the guinea pigs are quietly raised for one week, the cough sensitivity is screened: the guinea pigs are stimulated for one minute by atomizing 0.8 mol/L citric acid and continuously observed for five minutes after the atomizing is stopped; the coughing times of the guinea pigs in 6 minutes after the atomization is started is recorded; and the guinea pigs with the coughing times greater than 10 times and less than 50 times are the qualified guinea pigs.
The qualified guinea pigs are selected to be normally raised for three days and randomly divided into four groups with 30 guinea pigs in each group. The guinea pigs in the first group are divided into three subgroups with 10 guinea pigs in each subgroup, and all guinea pigs are directly under the citric acid cough stimulation: the guinea pigs are stimulated for one minute by atomizing 0.8 mol/L citric acid and are continuously observed for 5 minutes after the atomization is stopped, and the coughing times of the guinea pigs in 6 minutes after the atomization is started is recorded. […]

[2] = system: acute cough guinea pigs induced by citric acid smoke; test: Acute cough of guinea pigs induced by citric acid smoke, five days of dosing (Embodiment II); settings: 30 mg/kg oral once, one hour before stimulation at fifth day, x ± s, n = 8
Description: After the guinea pigs are quietly raised for one week, the cough sensitivity screening is carried out: the guinea pigs is stimulated for one minute by atomizing 0.8 mol/L citric acid and continuously observed for five minutes; the coughing times of the guinea pigs in 6 minutes after the atomizing is started is recorded; and the guinea pigs with the coughing times greater than 10 times and less than 50 times are the qualified guinea pigs. […]
Except for the normal group and the codeine group, the guinea pigs in the rest groups are orally given with drugs or solvent consecutively for five days and once a day; and the citric acid cough stimulation is carried out in one hour after the guinea pigs are given with the drug or solvent at the fifth day: the guinea pigs are stimulated for one minute by atomizing 0.8 mol/L citric acid and are continuously observed for 5 minutes after the atomizing is stopped, and the coughing times of the guinea pigs in 6 minutes after the atomizing is started is recorded. […]

[3] = system: BALF inflammatory cells of guinea pigs with increased cough sensitivity induced by cigarette smoke; test: Total number and classification of BALF inflammatory cells, cigarette smoke guinea pigs (Embodiment I); settings: codeine group 30 mg/kg oral once, n = 7-10
Description: 1.1 Smoking method: prior to the experiment, after being adaptively raised quietly for one week, the guinea pigs are placed in a self-made cigarette poisoning box; ten cigarettes are fired every time and placed in a smoking trough (flume-cured tobacco type, content of tar is 12 mg, content of nicotine in smoke is 1.1 mg, and content of carbon oxide in the smoke is 15 mg); and the cigarette smoke is led into the poisoning box by three-way valve, and the timing is started after the cigarette is burnt out. The guinea pigs are smoked for 20 minutes every time and twice a day; and the smoking interval time between two adjacent smoking is greater than 6 h; and the guinea pigs are consecutively smoked for 14 days.
The guinea pigs are randomly divided into a normal group, a model group, a solvent reference group (0.5% PEG400), a codeine group, a water extract high dose group (dose: 500 mg/kg guinea pig/day: drug concentration: […]), a total polysaccharides high dose group (dose: 500 mg/kg guinea pig/day; drug concentration: 50 mg/mL), a total polysaccharides middle dose group (dose: 250 mg/kg guinea pig/day; drug concentration: 25 mg/mL) and a total polysaccharides low dose group (dose: 125 mg/kg guinea pig/day, drug concentration: 12.5 mg/mL).
Except for the normal group, animals in other groups are respectively stimulated by adopting the smoking method described in the above 1.1. Except for the normal group and the codeine group, the guinea pigs in the other groups are orally given with the corresponding drugs or solvent two hours before the second smoking for 14 consecutive days from the first day of smoking. The guinea pigs of the codeine group is orally administrated (30 mg/kg guinea pig; the codeine concentration: 3 mg/mL) one hour before the citric acid cough sensitivity check. The guinea pigs of the normal group are normally raised without any treatment. The guinea pigs are placed in a plethysmogrophy box at the 15th day; two minutes later, 0.4 mol/L citric acid aqueous solution is atomized to perform the cough stimulation, and the atomizing is ended in 10 minutes; the guinea pigs are continuously observed for 10 minutes; and the coughing times and coughing latent period of the guinea pigs in 20 minutes after the atomizing is started are recorded.
Intraperitoneal injection with 3% pentobarbital sodium solution (1 mL/kg) is performed to anesthetize the animal in 24 hours after the cough stimulation test, and 10 mL of blood is taken from the heart of the animal. The bronchoalveolar lavage fluid (BALF) is obtained by taking 6 mL of 0.1 mol/L pre-cooled PBS buffer solution, performing the bronchoalveolar lavage for three times, and uniformly lavaging the left lung repeatedly for three times. […]

[4] = system: guinea pigs with increased cough sensitivity induced by cigarette smoke; test: Citric acid cough stimulation of guinea pigs with increased cough sensitivity induced by cigarette smoke (Embodiment I); settings: 30 mg/kg oral once, one hour before citric acid check, x ± s, n = 7-10
Description: Experimental animals used in the specific embodiments are ordinary male pure white Hartly guinea pigs each with a weight of 300±50 g which are supplied by the Laboratory Animal Center of Guangdong Province (SCXK (Guang) 2008-0002). The guinea pigs are raised in a relatively clean and quiet environment with constant temperature (23±3° C.) and constant humidity (55±15%); the diurnal cycle is 12:12 h/day; and the guinea pigs are raised in different cages, and every five guinea pigs are raised in one cage and can obtain food and water freely. […]
Except for the normal group, animals in other groups are respectively stimulated by adopting the smoking method described in the above 1.1. […] The guinea pigs are placed in a plethysmogrophy box at the 15th day; two minutes later, 0.4 mol/L citric acid aqueous solution is atomized to perform the cough stimulation, and the atomizing is ended in 10 minutes; the guinea pigs are continuously observed for 10 minutes; and the coughing times and coughing latent period of the guinea pigs in 20 minutes after the atomizing is started are recorded.

Q: With `COc1ccc2c3c1O[C@H]1[C@@H](O)C=C[C@H]4[C@@H](C2)N(C)CC[C@@]341` [Codeine] as the compound, how does the “coughing times compared with the normal group” value [1] read?
A: Its value is “no significant difference”.

Q: What about the Coughing times ([2]; 0.8 mol/L citric acid, 6 min count) of the same compound?
A: The Coughing times was 3.83 ± 1.94.

Q: What about the “Coughing latent period” value [2] of the same compound?
A: Its value is 115.3 ± 20.18 s.

Q: And the Eos % ([3]; BALF eosinophils, mean)?
A: Its Eos % is 4.25%.

Q: What about the Lym % ([3]; BALF lymphocytes, mean) of the same compound?
A: The Lym % was 3.64%.

Q: What about the Mac % ([3]; BALF macrophages, mean) of the same compound?
A: The Mac % was 43.86%.

Q: And the Neu % ([3]; BALF neutrophils, mean)?
A: The Neu % was 48.10%.

Q: What about the “total number of cells * 10^6/mL” value ([3]; BALF, x ± s) of the same compound?
A: The value was 2.13 ± 0.38 10^6/mL.

Q: What about the Coughing times ([4]; 0.4 mol/L citric acid, day 15, 20 min count) of the same compound?
A: Its Coughing times is 37.29 ± 11.64.

Q: And the “Coughing latent period” value ([4]; day 15)?
A: The value was 186.14 ± 45.27 s.
